Experimental data taken from patent publication US6893665B2, “Formulations for treating or preventing mucositis” (Orapharma, Inc., priority 1999, dated 2005).
Where a name gives a salt, the structure may show the parent alone.

Test system: mucositis induced by acute radiation exposure of the cheek pouch
Assay: Hamster cheek pouch model of radiation-induced oral mucositis, topical dosing, clinical scoring 0-5
Type: in vivo
Conditions: hamsters, 35 Gy on Day 0, 0.1 mL of 0.1 mg/mL aqueous solution topically three times a day for 22 days; for mucositis scores (clinical scoring 0-5) versus placebo control group: compared with solution without drug
Experimental: Hamsters were randomly assigned to treatment groups with eight (8) animals per group. Each group was treated either with a drug solution or a control, water.
Animals were dosed three times a day for 22 days. The first dose was applied on day —1. Either a solution of the drug or water alone was applied in a volume of 0.1 ml three times per day.
Mucositis was induced by acute radiation exposure of the check pouch. A single dose of radiation (35 Gy/dose) was administered to all animals on Day 0. Prior to irradiation, animals were anesthetized with an intraperiotoneal injection of sodium pentobarbital (80 mg/kg) and the left buccal pouch was everted, fixed and isolated using a lead shield.
Beginning on day 6 and continuing every other day up to day 28, the cheek pouch was photographed. On days that photographs were taken, prior to the first dosing of the day, the animals were anesthetized using an inhalation anesthetic and the left cheek pouch of each animal was rinsed vigorously with sterile water to remove residual food debris or foreign contamination and blotted dry with a gauze sponge. The appearance of the cheek pouch was scored visually by comparison to a validated photographic scale, ranging from 0 for normal to 5 for severe ulceration (clinical scoring). In descriptive terms, this scale is defined as follows: […]
A score of 1-2 represents mild stage of the disease, whereas a score of 3-5 indicates moderate to severe mucositis.

Row | Molecule | reduction in the number of animal days with scores of 3 or more, relative to the control group | mucositis scores (clinical scoring 0-5) versus placebo control group
1 | CN(C)[C@@H]1C(O)=C(C(N)=O)C(=O)[C@@]2(O)C(O)=C3C(=O)c4c(O)cccc4[C@@](C)(O)[C@H]3C[C@@H]12 [tetracycline hydrochloride] | more than 75% | Significantly lower scores
2 | meclocycline sulfosalicylate | more than 75% | Significantly lower scores
